For 27 compounds, melting point results are on record in patent US20080058293A1, “Quinoline Derivates and Their Use in Therapy” (priority 2003, published 2008).

Counter-ions that a name gives are not always drawn.

On to `O=C(NCC(c1ccccc1)c1ccccc1)c1c(Cl)ccc2nc(N3CCC(C(=O)O)CC3)ccc12` (as salt: acetate) [Example 25, 1-[6-Chloro-5-[[(2,2-diphenylethyl)amino]carbonyl]-2-quinolinyl]-4-piperidinecarboxylic acid, acetate], for which the melting point was in the range of 180 to 185 °C.

`Cc1ccc2c(C(=O)NC[C@H](C)c3ccccc3)c(Cl)ccc2n1` (as salt: hydrochloride) [Example 1, 6-Chloro-2-methyl-N-[(2R)-2-phenylpropyl]-5-quinolinecarboxamide, hydrochloride]: the melting point was 190 to 192 °C.

Consider `Cc1ccc2c(C(=O)NC[C@@H](C)c3ccccc3)c(Cl)ccc2n1` (as salt: hydrochloride) [Example 2, 6-Chloro-2-methyl-N-[(2S)-2-phenylpropyl]-5-quinolinecarboxamide, hydrochloride], for which the melting point was in the range of 182 to 185 °C.

In turn, `C[C@H](CC(=O)Nc1c(Cl)ccc2nc(NCCNCCO)ccc12)c1ccccc1` (as salt: hydrochloride) [Example 9, (βR)-N-[6-Chloro-2-[[2-[(2-hydroxyethyl)amino]ethyl]amino]-5-quinolinyl]-β-methyl-benzenepropanamide, dihydrochloride] gave a melting point of 178 to 182 °C.

Regarding `O=C(CCc1ccccc1Cl)Nc1c(Cl)ccc2nc(N3CCNCC3)ccc12` (as salt: hydrochloride) [Example 10, 2-Chloro-N-[6-chloro-2-(1-piperazinyl)-5-quinolinyl]-benzenepropanamide, dihydrochloride], the melting point was in the range of 265 to 270 °C.

In the case of `O=C(CCc1ccc(Cl)cc1Cl)Nc1c(Cl)ccc2nc(N3CCNCC3)ccc12` (as salt: hydrochloride) [Example 11, 2,4-Dichloro-N-[6-chloro-2-(1-piperazinyl)-5-quinolinyl]-benzenepropanamide, dihydrochloride], the melting point is 200 °C (dec.).

In turn, `O=C(CCc1ccc(Cl)cc1)Nc1c(Cl)ccc2nc(N3CCNCC3)ccc12` (as salt: hydrochloride) [Example 12, 4-Chloro-N-[6-chloro-2-(1-piperazinyl)-5-quinolinyl]-benzenepropanamide, dihydrochloride] had a melting point of 183 to 188 °C.

On to `C[C@H](CC(=O)Nc1c(Cl)ccc2nc(N3CC[C@H](NCCO)C3)ccc12)c1ccccc1` (as salt: hydrochloride) [Example 16, (βR)-N-[6-Chloro-2-[(3S)-3-[(2-hydroxyethyl)amino]-1-pyrrolidinyl]-5-quinolinyl]-β-methyl-benzenepropanamide, dihydrochloride], for which the melting point lay within 177 to 182 °C.

As for `CNCCCN(C)c1ccc2c(NC(=O)C[C@@H](C)c3ccccc3)c(Cl)ccc2n1` (as salt: trifluoroacetate) [Example 3, (βR)-N-[6-Chloro-2-[methyl[3-(methylamino)propyl]amino]-5-quinolinyl]-β-methyl-benzenepropanamide, ditrifluoroacetate], the melting point is 159 to 162 °C.

In turn, `C[C@H](CC(=O)Nc1c(Cl)ccc2nc(N3CCNCC3)ccc12)c1ccccc1` [Example 4, (βR)-N-[6-Chloro-2-(1-piperazinyl)-5-quinolinyl]-β-methyl-benzenepropanamide] yielded a melting point of 194 to 196 °C.

Compound `Cc1ccc2c(C(=O)NCCc3ccccc3)c(Cl)ccc2n1` [Example 5, 6-Chloro-2-methyl-N-(2-phenylethyl)-5-quinolinecarboxamide] showed a melting point of 170 to 172 °C.

Compound `C[C@H](CC(=O)Nc1c(Cl)ccc2nc(CCCNCCCO)ccc12)c1ccccc1` [Example 7, (βR)-N-[6-Chloro-2-[3-[(3-hydroxypropyl)amino]propyl]-5-quinolinyl]-β-methyl-benzenepropanamide] came in with a melting point of 118 to 120 °C.

Regarding `CC(Cc1ccc(Cl)c(Cl)c1)C(=O)Nc1cccc2ncccc12` (stereo not drawn) [Example 8, 3,4-Dichloro-α-methyl-N-5-quinolinyl-benzenepropanamide], the melting point lay in the range of 168 to 170 °C.

Compound `C[C@H](CC(=O)Nc1c(Cl)ccc2nc(N3CC[C@H](N)C3)ccc12)c1ccccc1` [Example 13, (βR)-N-[2-[(3S)-3-Amino-1-pyrrolidinyl]-6-chloro-5-quinolinyl]-β-methyl-benzenepropanamide] yielded a melting point of 204 to 207 °C.

As to `C[C@H](CC(=O)Nc1c(Cl)ccc2nc(N3CC[C@H](NCCCO)C3)ccc12)c1ccccc1` [Example 15, (βR)-N-[6-Chloro-2-[(3S)-3-[(3-hydroxypropyl)amino]-1-pyrrolidinyl]-5-quinolinyl]-β-methyl-benzenepropanamide], the melting point fell in the range of 155 to 158 °C.

In turn, `O=C(CCc1ccccc1)Nc1c(Cl)ccc2nc(N3CCNCC3)ccc12` [Example 17, N-[6-Chloro-2-(1-piperazinyl)-5-quinolinyl]-benzenepropanamide] returned a melting point of 231 to 234 °C.

As to `N[C@H]1CCN(c2ccc3c(NC(=O)CCc4ccccc4Cl)c(Cl)ccc3n2)C1` [Example 18, N-[2-[(3S)-3-Amino-1-pyrrolidinyl]-6-chloro-5-quinolinyl]-2-chlorobenzenepropanamide], the melting point is 200 to 212 °C.

In turn, `O=C(CCc1ccccc1Cl)Nc1c(Cl)ccc2nc(N3CC[C@H](NCCO)C3)ccc12` [Example 19, 2-Chloro-N-[6-chloro-2-[(3S)-3-[(2-hydroxyethyl)amino]-1-pyrrolidinyl]-5-quinolinyl]-benzenepropanamide] yielded a melting point of 180 to 182 °C.

For the compound `N[C@H]1CCN(c2ccc3c(C(=O)NCCc4ccccc4Cl)c(Cl)ccc3n2)C1` [Example 21, 2-[(3S)-3-Amino-1-pyrrolidinyl]-6-chloro-N-[2-(2-chlorophenyl)ethyl]-5-quinolinecarboxamide], the melting point fell in the range of 196 to 198 °C.

Regarding `O=C(NCCc1ccccc1Cl)c1c(Cl)ccc2nc(N3CC[C@H](NCCO)C3)ccc12` [Example 22, 6-Chloro-N-[2-(2-chlorophenyl)ethyl]-2-[(3S)-3-[(2-hydroxyethyl)amino]-1-pyrrolidinyl]-5-quinolinecarboxamide], the melting point was in the range of 170 to 172 °C.

The compound `O=C(NCCc1c(Cl)cccc1Cl)c1c(Cl)ccc2nc(N3CCC(C(=O)O)CC3)ccc12` [Example 23, 1-[6-Chloro-5-[[[2-(2,6-dichlorophenyl)ethyl]amino]carbonyl]-2-quinolinyl]-4-piperidinecarboxylic acid] registered a melting point of 262 to 264 °C.

Compound `O=C(NCCc1ccccc1Cl)c1c(Cl)ccc2nc(N3CCC(C(=O)O)CC3)ccc12` [Example 24, 1-[6-Chloro-5-[[[2-(2-chlorophenyl)ethyl]amino]carbonyl]-2-quinolinyl]-4-piperidinecarboxylic acid] showed a melting point of 250 to 253 °C.

As to `O=C(NCCc1ccccc1)c1c(Cl)ccc2nc(N3CCC(C(=O)O)CC3)ccc12` [Example 26, 1-[6-Chloro-5-[[(2-phenylethyl)amino]carbonyl]-2-quinolinyl]-4-piperidinecarboxylic acid], the melting point lay in the range of 260 to 262 °C.

For `O=C(NCCc1ccccc1F)c1c(Cl)ccc2nc(N3CCC(C(=O)O)CC3)ccc12` [Example 27, 1-[6-Chloro-5-[[[2-(2-fluorophenyl)ethyl]amino]carbonyl]-2-quinolinyl]-4-piperidinecarboxylic acid], the melting point was 270 to 272 °C.

With `Cc1ccccc1CCNC(=O)c1c(Cl)ccc2nc(N3CCC(C(=O)O)CC3)ccc12` [Example 28, 1-[6-Chloro-5-[[[2-(2-methylphenyl)ethyl]amino]carbonyl]-2-quinolinyl]-4-piperidinecarboxylic acid], the melting point is 237 to 241 °C.

For the compound `C[C@H](CNC(=O)c1c(Cl)ccc2nc(N3CCC(C(=O)O)CC3)ccc12)c1ccccc1` [Example 29, 1-[6-Chloro-5-[[[(2S)-2-phenylpropyl]amino]carbonyl]-2-quinolinyl]-4-piperidinecarboxylic acid], the melting point is 150 to 153 °C.

`O=C(NCCc1ccc(Cl)cc1)c1c(Cl)ccc2nc(N3CCC(C(=O)O)CC3)ccc12` [Example 31, 1-[6-Chloro-5-[[[2-(4-chlorophenyl)ethyl]amino]carbonyl]-2-quinolinyl]-4-piperidinecarboxylic acid]: the melting point is 231 to 234 °C.
